The values below come from US5310745A, “Antiviral compounds” (priority 1992, dated 1994).

One data set has as its system HIV. Conditions: cited from earlier work; for HIV inhibitory activity: disclosed in earlier patents/applications.
The subject of data set [1] is Sheep choroid plexus (SCP) cells. Put plainly: Toxicity of compounds in control wells without virus, graded morphologically. The data set is classed as cell-based. Set-up: key: 0: no toxicity; 4: total cell lysates. Particulars: 0 to 4 scale, Table 1. As to the method: (§1) Sheep choroid plexus (SCP) cells were obtained from American Type Culture Collection (ATCC) catalogue number CRL 1700 and were routinely passaged in vitro in Dulbecco's Modified Eagles (DME) medium supplemented with 20% fetal bovine serum (FBS). SCP cells were passaged once per week at a 1:2 or 1:3 split ratio. Visna was titrated by plaque assay in six-well plates. Virus pools were stored at -70° C.
(§2) SCP cells were cultured in 6-well plates to confluence. Wells were washed two times with serum free Minimal Essential Medium (MEM) to remove FBS. 0.2 ml of virus was added per well in MEM supplemented with 4 mM glutamine and gentamycin. After 1 hour adsorption, the virus was aspirated from each well. The appropriate concentration of each compound in 5 ml of Medium 199 (M-199) supplemented With 2% lamb serum, 4 mM glutamine, 0.5% agarose and gentamycin was added to each well. Cultures were incubated at 37° C. in a humidified 5% CO2 incubator for 3-4 weeks. To terminate the test: cultures were fixed in 10% formalin, the agar removed, the monolayers stained with 1% crystal violet and plaques counted. Each compound concentration was run in triplicate. […] 0 is no toxicity observed while 4 is total lysing of the cell monolayer.

A further data set concerns visna virus. The experiment in a line: Plaque reduction assay, inhibition of visna virus in vitro. Particulars: Table 1. Set-up: key to Antiviral Activity: A: active compound; I: inactive compound. The data set is classed as cell-based.
Excerpt: Visna virus, a lentivirus genetically very similar to the AIDS virus, is pathogenic for sheep and goats. See Sonigo et al., Cell 42, 369-382 (1985); Haase, Nature 322, 130-136 (1986). Inhibition of visna virus replication in vitro as a useful model for human immunodeficiency virus (HIV) and its inhibition by test compounds has been described by Franket al., Antimicrobial Agents and Chemotherapy 31 (9), 1369-1374 (1987). The N-butyl derivative of 1,5-dideoxy-1,5-imino-D-glucitol, also referred to as n-butyl-deoxynojirimycin (N-Bu-DNJ), was used as a control standard for comparison with various novel compounds of this invention.
Various compounds as prepared above were tested for inhibition of visna virus in vitro in a plaque reduction assay as follows:
as §1, §2

A short description of a further data set: Diarrheagenic effect. Particulars: normal, uninfected monkeys. The data set is classed as in vivo, monkey.
The test system of data set [2] is Sheep choroid plexus (SCP) cells. The experiment in a line: Toxicity of compounds in control wells without virus, graded morphologically. In kind it is cell-based. Conditions: 0 to 4 scale, Table 1. As to the method:
as §1, §2

The subject of another data set is sucrase. The experiment in a line: Sucrase inhibition locally in the gut. In kind it is in vivo, monkey. Particulars: normal, uninfected monkeys.
Data set [3] in a line: Pharmacokinetic and metabolism study, Rhesus monkey. Conditions: for metabolic profiles of either radiolabeled compound (pro-drug, metabolite): monkey, oral, plasma and urine. The data set is classed as in vivo. As to the method: (§3) The parent tetrabutyrate compound consequently serves as an antivirally effective and useful pro-drug of the latter compound to which it is metabolized in the gut. […] The parent pro-drug was not detected. […] The oral bioactivity of the metabolite compound, measured as [^14 C]-metabolite compound, was determined to be between 28% and 50% in the Rhesus monkey, depending on the vehicle used (e.g., 0.5% methyl cellulose and 0.1% polysorbate in water). […] The blood levels of the metabolite compound, measured as part of a long term SIV infected monkey efficacy study, following oral dosing (high dose 750 mg/kg, low dose 250 mg/kg, administered every eight hours) with the pro-drug, yielded mean trough (cmin) plasma blood levels of the metabolite compound at eight hours post dosing of approximately 10 μg/mL and 6.8 μg/mL for the high and low doses, respectively.

Data set [4] is described as follows: Pharmacokinetic and metabolism study, rat. In kind it is in vivo. The procedure: as §3
The mark [5] stands for this setting: oral [14C] pro-drug, Rhesus monkey.

Read-outs that look alike come from different tables or passages of the source.

Regarding `Cc1cn([C@H]2C[C@H](N=[N+]=[N-])[C@@H](CO)O2)c(=O)[nH]c1=O` [AZT, 3'-azido-3'-deoxythymidine], in the data set on HIV (in vitro), the “inhibition of virus replication in vitro” value is “inhibit replication of the virus in vitro”.

For the molecule `CN1C[C@H](O)[C@@H](O)[C@H](O)[C@H]1CO` [Example 9, 1,5-(Methylimino)-1,5-dideoxy-D-glucitol], the HIV inhibitory activity entry in the data set with HIV is on record as “HIV inhibitory activity”.

Turning to `CCCCN1C[C@H](OC(=O)CCC)[C@@H](OC(=O)CCC)[C@H](OC(=O)CCC)[C@H]1COC(=O)CCC` [Example 16, 1,5-(Butylimino)-1,5-dideoxy-D-glucitol, tetrabutyrate], the Toxicity in data set [1] (0.001 mM) was determined as 0; in data set [1] (0.01 mM), 0; in data set [1] (1.0 mM) it was 4; in data set [2] (0.1 mM), 1. In addition, the “Antiviral Activity” value is given as “A” with visna virus (0.001 mM), “A” in the data set with visna virus (0.01 mM), “A” in the data set with visna virus (0.1 mM) and “Toxic” with visna virus (1.0 mM). For the same molecule, the diarrheagenic results in the data set “Diarrheagenic effect” is reported as “negative diarrheagenic results”. Further, in the data set on sucrase, the “inhibition of sucrase locally in the gut” value is on record as “does not significantly inhibit sucrase locally in the gut”. In addition, the “metabolic transformation in vivo” value is listed as “controlled, sustained levels of a metabolite” in data set [3] (Rhesus monkey) and “controlled, sustained levels of a metabolite” in data set [4]. Moreover, the “metabolic profiles of either radiolabeled compound (pro-drug, metabolite)” value in data set [3] is “the same in plasma and urine”. Moreover, the “parent pro-drug in plasma” value in data set [3] (setting [5]) and in data set [4] (oral [14C] pro-drug) was “not detected” each time. Further, the “radiolabeled compound in plasma after oral pro-drug” value in data set [3] (setting [5]) and in data set [4] (oral [14C] pro-drug) was “yielded only [^14 C]SC-metabolite compound in the plasma” throughout. Also, the “parent pro-drug in portal plasma” value in data set [4] (oral, portal plasma) is reported as “no parent pro-drug detected”.

In the case of `CCCCN1C[C@H](OC(=O)c2ccccc2)[C@@H](OC(=O)c2ccccc2)[C@H](OC(=O)c2ccccc2)[C@H]1COC(=O)c1ccccc1` [Example 18, 1,5-(Butylimino)-1,5-dideoxy-D-glucitol, tetrabenzoate], the values for the Toxicity in data set [1] (1.0 mM) and in data set [2] (0.1 mM) were 0 and 1, respectively. Further, the “Antiviral Activity” value with visna virus (0.1 mM) and in the data set on visna virus (1.0 mM) was “A” in each case.

Turning to `CC(=O)OC[C@@H]1[C@@H](OC(C)=O)[C@H](OC(C)=O)[C@@H](OC(C)=O)CN1C(=O)CCc1ccccc1` [Example 20, 1,5-(Hydrocinnamoylimino)-1,5-dideoxy-D-glucitol, tetraacetate], the Toxicity in data set [1] (0.01 mM) was found to be 0; in data set [2] (0.1 mM), 1; in data set [2] (1.0 mM), 2. In addition, the “Antiviral Activity” value in the data set on visna virus (0.01 mM), in the data set on visna virus (0.1 mM) and in the data set on visna virus (1.0 mM) was “A” in each case.

As to `CCCCN1C[C@H](O)[C@@H](O)[C@H](O)[C@H]1CO` [N-Bu-DNJ, 1,5-(Butylimino)-1,5-dideoxy-D-glucitol, reference compound], the Toxicity in data set [1] (0.001 mM) came to 0; in data set [1] (0.01 mM), 0; in data set [2] (0.1 mM) it was 1; in data set [2] (1.0 mM), 2. In addition, the HIV inhibitory activity result in the data set on HIV is reported as “HIV inhibitory activity”; in the data set with HIV (listed as N-butyl derivative of deoxynojirimycin) it was “substantially more effective anti-HIV activity”. The “Antiviral Activity” value was “I” in the data set on visna virus (0.001 mM), “I” in the data set with visna virus (0.01 mM), “A” in the data set with visna virus (0.1 mM) and “A” in the data set with visna virus (1.0 mM). The “metabolic profiles of either radiolabeled compound (pro-drug, metabolite)” value in data set [3] was “the same in plasma and urine”.

On to `OC[C@H]1NC[C@H](O)[C@@H](O)[C@@H]1O` [deoxynojirimycin, 1,5-dideoxy-1,5-imino-D-glucitol], for which the HIV inhibitory activity entry in the data set with HIV is reported as “HIV inhibitory activity”.
